In patent US9399662B2, “Concurrent chemotherapy and immunotherapy” (Duke University, priority 2005, dated 2016):

System: CD4+CD25+FoxP3+ regulatory T cells and CD8+ T cells
Assay: Flow cytometry of CD8+ T cell and Treg subsets during an immunochemotherapy cycle
Type: in vivo, human
Details: day 12 of temozolomide cycle (5/21 schedule), vaccine on day 19
Excerpt: To characterize the response of the various T cell populations during a cycle of temozolomide (5/21 schedule) and concurrently administered vaccine (day 19 on this example), we obtained peripheral blood on days 0, 3, 5, 12, 19, 23, 25 and 26. By flow analysis cytometry, we investigated the percentage of the CD8+ T cell and CD4+CD25+FoxP3+ regulatory T cells subsets during an immunochemotherapy cycle. All fluorescence-conjugated monoclonal antibodies (mAb) (PerCP-Cy5.5-CD3, FITC-CD8, APC-CD4 and PE-CD25) were purchased from BD Biosciences except the FITC-labeled mAb of FoxP3 was made by eBioscience. The surface and intracellular staining of peripheral blood cells were performed according to the standard procedures provided by the manufacturer. Results were analyzed by FACSCalibur flow cytometer using Cellquest Pro software (BD Biosciences). In contrast to the decline of the CD8+ T cell subset, the Treg population started to increase after the administration of temozolomide for 3 days and reached its peak (0.9% of total CD4^+ T cells) on day 12. The Tregs then began to drop until day 23 while the CD8^+ T cell numbers started to recover. At the end of the course, both of CD8^+ T cell and Treg populations recovered to pre-treatment levels.

Question: With `Cn1nnc2c(C(N)=O)ncn2c1=O` [temozolomide] as the compound, how does the Treg population peak read?
Answer: Its Treg population peak is 0.9 % of total CD4+ T cells.
